Source: patent publication US20160304552A1, “MODIFIED NUCLEIC ACID MOLECULES AND USES THEREOF” (MODERNA THERAPEUTICS, INC., priority 2013, published 2016)

Assays:
HeLa cells [1] = assay: Transfection in HeLa cells, human GCSF modRNA (GCSF ELISA of supernatant); assay type: cell-based; conditions: Table 22, 250 ng modRNA, 18 h to 22 h
Experimental: (§1) The day before transfection, 20.000 HeLa cells (ATCC no. CCL-2; Manassas, Va.) were harvested by treatment with Trypsin-EDTA solution (LifeTechnologies, Grand Island, N.Y.) and seeded in a total volume of 100 ul EMEM medium (supplemented with 10% FCS and 1× Glutamax) per well in a 96-well cell culture plate (Corning, Manassas, Va.). The cells were grown at 37° C. in 5% CO2 atmosphere overnight. Next day, 83 ng of Luciferase modRNA or 250 ng of human GCSF modRNA, harboring chemical modifications on the bases or the ribose units, were diluted in 10 ul final volume of OPTI-MEM (LifeTechnologies, Grand Island, N.Y.). Lipofectamine 2000 (LifeTechnologies, Grand Island, N.Y.) was used as transfection reagent and 0.2 μl were diluted in 10 ul final volume of OPTI-MEM. After 5 min incubation at room temperature, both solutions were combined and incubated additional 15 min at room temperature. Then the 20 μl were added to the 100 ul cell culture medium containing the HeLa cells. The plates were then incubated as described before.
(§2) After 18 h to 22 h incubation, cell culture supernatants of cells expressing human GCSF or human EPO were collected and centrifuged at 10.000 rcf for 2 min. The cleared supernatants were transferred and analyzed with a human GCSF-specific or EPO ELISA kit (both from R&D Systems, Minneapolis, Minn.; Cat. #s SCS50, DEP00, respectively) according to the manufacturer instructions. All samples were diluted until the determined values were within the linear range of the human GCSF or EPO ELISA standard curve.

HeLa cells [2] = assay: Transfection in HeLa cells, human EPO modRNA (EPO ELISA of supernatant); assay type: cell-based; conditions: Table 22, 18 h to 22 h
Experimental: as §1, §2

T7 RNA polymerase = T7 RNA polymerase (Escherichia phage T7, UniProt P00573); assay: In vitro transcription yields of modified mRNA; assay type: biochemical; conditions: for EPO In Vitro Transcription yield: EPO mRNA made with the modified NTP(s); for GCSF In Vitro Transcription yield: GCSF mRNA made with the modified NTP(s); for Luc In Vitro Transcription yield: Luciferase mRNA made with the modified NTP(s)
Experimental: The in vitro transcription reaction generates mRNA containing modified nucleotides or modified RNA. The input nucleotide triphosphate (NTP) mix is made in-house using natural and unnatural NTPs.
A typical in vitro transcription reaction includes the following:
Incubation at 37° C. for 3 hr-5 hrs.
The crude IVT mix may be stored at 4° C. overnight for cleanup the next day. 1 U of RNase-free DNase is then used to digest the original template. After 15 minutes of incubation at 37° C., the mRNA is purified using Ambion's […]™ Kit (Austin, Tex.) following the manufacturer's instructions. This kit can purify up to 500 μg of RNA. Following the cleanup, the RNA is quantified using the NanoDrop and analyzed by agarose gel electrophoresis to confirm the RNA is the proper size and that no degradation of the RNA has occurred.
Modified mRNAs in TE buffer (1 μl) are used for Nanodrop UV absorbance readings to quantitate the yield of each modified mRNA from an in vitro transcription reaction (UV absorbance traces are not shown).

[3] = test system: Rabbit Reticulocyte Lysate; assay: In vitro translation screen, human GCSF modRNA (GCSF ELISA); assay type: biochemical; conditions: Table 20; 250 ng modRNA, 45 min, 30° C.
Experimental: (§3) The in vitro translation assay was done with the Rabbit Reticulocyte Lysate (nuclease-treated) kit (Promega, Madison, Wis.; Cat. #L4960) according to the manufacturer's instructions. The reaction buffer was a mixture of equal amounts of the amino acid stock solutions devoid of Leucine or Methionine provided in the kit.
(§4) The modRNAs of firefly Luciferase, human GCSF and human EPO, harboring chemical modifications on either the bases or the ribose units, were diluted in sterile nuclease-free water to a final concentration of 250 ng in 2.5 ul (Stock 100 ng/μl). The modRNA (250 ng) was added to the mixture of freshly prepared Rabbit Reticulocyte Lysate and reaction buffer.
(§5) Aliquots of the in vitro translation reaction containing human GCSF modRNA or human EPO mRNA were transferred and analyzed with a human GCSF-specific or EPO ELISA kit (both from R&D Systems, Minneapolis, Minn.; Cat. #s SCS50, DEP00 respectively) according to the manufacturer instructions. All samples were diluted until the determined values were within the linear range of the human GCSF or EPO ELISA standard curve.

[4] = test system: Rabbit Reticulocyte Lysate; assay: In vitro translation screen, firefly Luciferase modRNA (luciferase assay, relative light units); assay type: biochemical; conditions: Table 20; 250 ng modRNA, 45 min, 30° C.
Experimental: as §3, §4
After 45 min incubation, the reaction was stopped by placing the plate on ice. Aliquots of the in vitro translation reaction containing luciferase modRNA were transferred to white opaque polystyrene 96-well plates (Corning, Manassas, Va.; Cat. # CLS3912) and combined with 100 ul complete luciferase assay solution (Promega, Madison, Wis.). The volumes of the in vitro translation reactions were adjusted or diluted until no more than 2 million relative light units per well were detected for the strongest signal producing samples. […] The plate reader was a BioTek Synergy H1 (BioTek, Winooski, Vt.).

[5] = test system: Rabbit Reticulocyte Lysate; assay: In vitro translation screen, human EPO modRNA (EPO ELISA); assay type: biochemical; conditions: Table 20; 250 ng modRNA, 45 min, 30° C.
Experimental: as §3, §4, §5

HeLa cells [6] = assay: Transfection in HeLa cells, Luciferase modRNA (luciferase assay, relative light units); assay type: cell-based, human; conditions: Table 22, 83 ng modRNA, Lipofectamine 2000, 18 h to 22 h
Experimental: as §1
After 18 h to 22 h incubation, cells expressing luciferase were lysed with 100 μl Passive Lysis Buffer (Promega, Madison, Wis.) according to manufacturer instructions. Aliquots of the lysates were transferred to white opaque polystyrene 96-well plates (Corning, Manassas, Va.) and combined with 100 ul complete luciferase assay solution (Promega, Madison, Wis.). The lysate volumes were adjusted or diluted until no more than 2 mio relative light units per well were detected for the strongest signal producing samples. […] The plate reader was a BioTek Synergy H1 (BioTek, Winooski, Vt.).

T7 RNA polymerase, sequence (P00573 whole entry): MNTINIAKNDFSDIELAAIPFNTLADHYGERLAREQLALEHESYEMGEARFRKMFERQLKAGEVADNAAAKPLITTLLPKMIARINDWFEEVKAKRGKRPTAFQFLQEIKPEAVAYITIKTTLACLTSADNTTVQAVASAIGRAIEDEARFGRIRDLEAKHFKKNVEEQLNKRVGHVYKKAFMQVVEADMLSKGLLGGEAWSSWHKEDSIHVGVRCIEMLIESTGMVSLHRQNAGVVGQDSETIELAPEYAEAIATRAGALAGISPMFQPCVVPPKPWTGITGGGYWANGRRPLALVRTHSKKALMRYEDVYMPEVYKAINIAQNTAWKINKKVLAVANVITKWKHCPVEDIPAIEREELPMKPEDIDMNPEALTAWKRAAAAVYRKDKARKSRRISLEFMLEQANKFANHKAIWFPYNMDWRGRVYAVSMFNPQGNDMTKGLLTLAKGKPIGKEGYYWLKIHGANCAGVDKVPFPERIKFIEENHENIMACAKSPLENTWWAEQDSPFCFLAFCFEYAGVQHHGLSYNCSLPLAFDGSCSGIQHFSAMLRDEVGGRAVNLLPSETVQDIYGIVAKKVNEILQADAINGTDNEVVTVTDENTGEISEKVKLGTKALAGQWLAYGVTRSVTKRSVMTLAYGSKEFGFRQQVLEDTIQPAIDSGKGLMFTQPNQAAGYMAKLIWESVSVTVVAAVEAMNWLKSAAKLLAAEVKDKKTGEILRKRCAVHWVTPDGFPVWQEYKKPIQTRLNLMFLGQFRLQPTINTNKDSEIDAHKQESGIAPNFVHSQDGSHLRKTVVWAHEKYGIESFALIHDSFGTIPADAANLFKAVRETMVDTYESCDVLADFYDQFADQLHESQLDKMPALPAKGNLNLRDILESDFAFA

SMILES | GCSF Expression (HeLa cells [1]) | Epo Expression (HeLa cells [2]) | EPO In Vitro Transcription yield (T7 RNA polymerase) | GCSF In Vitro Transcription yield (T7 RNA polymerase) | Luc In Vitro Transcription yield (T7 RNA polymerase) | GCSF Expression [3] | Luc Expression (RLUs) [4] | Epo Expression [5] | Luc Expression (RLUs) (HeLa cells [6])
Cc1cn([C@@H]2O[C@H](COP(=O)(O)OP(=O)(O)OP(=O)(O)O)C(O)C2O)c(=S)[nH]c1=O (stereo in doubt) [00901013004 (4), 5-Methyl-2-thio-UTP] | 16420 pg/mL | 8333 pg/mL | 0.8717 mg | 0.4682 mg | 0.7580 mg | 2319 pg/mL | 235 RLUs | 1100 pg/mL | –
COC(=O)COc1cn([C@@H]2O[C@H](COP(=O)(O)OP(=O)(O)OP(=O)(O)O)C(O)C2O)c(=O)[nH]c1=O (stereo in doubt) [00901013004 (348), UTP-5-oxyacetic acid Me ester] | 5714 pg/mL | 8333 pg/mL | 0.3859 mg | 0.3836 mg | 0.6348 mg | 4388 pg/mL | 162 RLUs | 544 pg/mL | –
COC(=O)Cc1cn([C@@H]2O[C@H](COP(=O)(O)OP(=O)(O)OP(=O)(O)O)C(O)C2O)c(=O)[nH]c1=O (stereo in doubt) [00901013005 (358), 5-Methoxy carbonyl methyl-UTP] | – | 8333 pg/mL | 0.6432 mg | 0.6475 mg | 0.8825 mg | – | – | – | –
Nc1nc(=O)n([C@@H]2O[C@H](COP(=O)(O)OP(=O)(O)OP(=O)(O)O)C(O)C2O)cc1C(F)(F)F (stereo in doubt) [00901014003 (351), 5-Trifluoromethyl-CTP] | 1039000 pg/mL | 668100 pg/mL | 0.7886 mg | 0.7710 mg | 0.5097 mg | 31510 pg/mL | 23340 RLUs | 10200 pg/mL | 32250 RLUs
CNc1ccn([C@@H]2O[C@H](COP(=O)(O)OP(=O)(O)OP(=O)(O)O)C(O)C2O)c(=O)n1 (stereo in doubt) [00901014004 (346), N4-methyl CTP] | – | 90280 pg/mL | 1.154 mg | 0.9028 mg | 1.124 mg | – | – | – | –
Nc1ncc2ncn([C@@H]3O[C@H](COP(=O)(O)OP(=O)(O)OP(=O)(O)O)C(O)C3O)c2n1 (stereo in doubt) [03601012004 (382), 2-Aminopurine-riboside TP] | 39290 pg/mL | 56980 pg/mL | 0.0125 mg | 0.2919 mg | 0.0690 mg | 8675 pg/mL | 107000 RLUs | 22180 pg/mL | 713.50 RLUs
NC/C=C/c1cn([C@@H]2O[C@H](COP(=O)(O)OP(=O)(O)OP(=O)(O)O)C(O)C2O)c(=O)nc1N (stereo in doubt) [03601014009 (381), 5-Aminoallyl-CTP] | 24290 pg/mL | 3488 pg/mL | 0.4943 mg | 0.4567 mg | 0.3471 mg | 1806 pg/mL | 887 RLUs | 169 pg/mL | 319.00 RLUs
CCn1cc([C@@H]2O[C@H](COP(=O)(O)OP(=O)(O)OP(=O)(O)O)C(O)C2O)c(=O)[nH]c1=O (stereo in doubt) [03601015003 (172), 1-Ethyl-pseudo-UTP] | 209300 pg/mL | 52780 pg/mL | 1.095 mg | 0.5464 mg | 0.6304 mg | 5700 pg/mL | 122 RLUs | 7894 pg/mL | 130.50 RLUs
CCCn1cc([C@@H]2O[C@H](COP(=O)(O)OP(=O)(O)OP(=O)(O)O)C(O)C2O)c(=O)[nH]c1=O (stereo in doubt) [03601015004 (173), 1-Propyl-pseudo-UTP] | 10000 pg/mL | 0.00 pg/mL | 0.9920 mg | 0.5976 mg | 0.4971 mg | 1613 pg/mL | 140 RLUs | 838 pg/mL | –
O=c1ccn([C@@H]2O[C@H](COP(=O)(O)OP(=O)(O)OP(=O)(O)O)C(O)C2O)c(=S)[nH]1 (stereo in doubt) [Compound 00901013008, 2-Thio-UTP] | 214300 pg/mL | 182600 pg/mL | 0.3630 mg | 0.3359 mg | 0.2792 mg | 3744 pg/mL | 1181 RLUs | 1894 pg/mL | 423.00 RLUs
